Key:
A549 cells [1] = assay: Oxidative stress assay (ROS, DHE, HCS reader); assay type: cell-based, human; settings: 24 h
Description: FIGS. 3A and 3B depict induction of oxidative stress by cis- and trans-suffruticosol D in A549 cells. A549 cells were treated with various concentrations of cis- or trans-suffruticosol D for 24 h, then stained with Hoechst and dihydroethidium (DHE) dye. Cells treated with Doxorubicin served as a positive control, and cells treated with vehicle only served as a negative control. The reactive oxygen species (ROS) levels were measured by the fluorescent intensity of DHE that was converted to ethidium bromide.
Oxidative stress assay. The Hitkit oxidative stress kit (Thermo Scientific, Waltham, Mass., USA) was used to determine the generation of reactive oxygen species (ROS) according to the manufacturer's instructions. Briefly, A549 cells were treated with cis- or trans-suffruticosol D for 24 h, fixed with warm 37% formaldehyde and stained with Hoechst and dihydroethidium (DHE) dye for 30 min at 37° C. with 5% CO2. Doxorubicin (DOX) at 1 μM concentration was used as a positive control and cells treated with vehicle only were used as negative control. ROS generation in the nuclei was indicated by the production of the fluorescent ethidium, and assessed by measuring the nuclear fluorescent intensity using an ArrayScan VTI High-content screening (HCS) reader (Thermo Scientific, Waltham, Mass., USA). Images were acquired and data was analyzed by vHCS Scan software.

[2] = tested on: BT20 (estrogen receptor-negative human breast adenocarcinoma) cells; assay: Cell proliferation assay (AlamarBlue), BT20; assay type: cell-based; settings: for IC50: BT20, 48 h, AlamarBlue; for Selectivity: BT20 versus normal HMEC cells
Description: (§1) Cell culture. Four human cancer cell lines including A549 (lung carcinoma), BT20 (estrogen receptor-negative human breast adenocarcinoma), MCF-7 (estrogen receptor-positive human breast adenocarcinoma) and U2OS (human osteosarcoma) were purchased from American Type Culture Collection (ATCC). An A549 cell line that stably expresses Green Fluorescent Protein (GFP) was purchased from Cell BioLabs Inc. (San Diego, Calif., USA). A549, A549-GFP and BT20 cells were cultured in RPMI 1640 media (Sigma-Aldrich, St. Louis, Mo., USA), MCF7 cells were cultured in DMEM medium (ATCC, Manassas, Va., USA), and U20S cells were cultured in McCoy's 5A medium (ATCC, Manassas, Va., USA). As a control, HMEC cells (primary human mammary breast epithelial cells) were purchased from ATCC and cultured in McCoy's 5A medium. All medium contained 10% FBS (Sigma-Aldrich, St. Louis, Mo., USA) and 1% streptomycin and penicillin (Sigma-Aldrich, St. Louis, Mo., USA). These cells were incubated in a humid environment with 5% CO2 at 37° C.
(§2) Cell proliferation assay. The resazurin reduction reagent AlamarBlue (Invitrogen, Frederick, Md., USA) was used to evaluate the cytotoxicity of the compounds. Cells were plated at a density of 5×10^3 cells per well in 96-well microplates with 100 μl culture medium, and were allowed to attach for 16 h prior to treatment. Next, all the medium was replaced with medium containing the cis- or trans-suffruticosol D compounds at seven different concentrations: 320, 100, 32, 10, 3.2, 1.0, and 0.32 μM. The cells were placed in an incubator for 48 h at 37° C. Cells that were treated with medium-containing vehicle (1% DMSO) only serve as negative control. Subsequently, AlamarBlue solution was added to the medium and the cells were incubated in the CO2 incubator for 1 h. The fluorescent intensity change of the dye was measured at Ex 555 nm and Em 590 nm using a plate reader (Molecular Devices, Sunnyvale, Calif., USA). The cytotoxicity was examined by determining by IC50, the dose that inhibited 50% of cell growth, using GraphPad Prism software (GraphPad Software, La Jolla, Calif., USA).
(§3) Table 1. IC50 values of cis- and trans-suffruticosol D in selected cancer and normal cell lines. Cells were treated with various concentrations of cis- or trans-suffruticosol D for 48 h, and the viability of cells was evaluated with AlamarBlue dye.

[3] = tested on: A549 (lung carcinoma) cells; assay: Cell proliferation assay (AlamarBlue), A549; assay type: cell-based, human; settings: for IC50: A549, 48 h, AlamarBlue; for Selectivity: A549 versus normal HMEC cells
Description: as §1, §2, §3

[4] = tested on: MCF-7 (estrogen receptor-positive human breast adenocarcinoma) cells; assay: Cell proliferation assay (AlamarBlue), MCF-7; assay type: cell-based; settings: for IC50: MCF-7, 48 h, AlamarBlue; for Selectivity: MCF-7 versus normal HMEC cells
Description: as §1, §2, §3

[5] = tested on: apoptotic proteins in A549 cells; assay: Apoptosis antibody array; assay type: cell-based, human; settings: 50 μM, 6 h
[6] = tested on: U2OS (human osteosarcoma) cells; assay: Cell proliferation assay (AlamarBlue), U2OS; assay type: cell-based; settings: for Selectivity: U2OS versus normal HMEC cells; for IC50: U2OS, 48 h, AlamarBlue
Description: as §1, §2, §3

A549 cells [7] = assay: Apoptosis assay (Annexin V/7-AAD flow cytometry); assay type: cell-based, human; settings: 24 h
Description: FIGS. 2A-E depict induction of apoptosis by cis- and trans-suffruticosol D in A549 cells. After 24 h treatment by cis- or trans-suffruticosol D, A549 cells were stained with Annexin V/7-amino-actinomycin D (7-AAD) and the percentage of apoptotic cells, as measured by fluorescence intensity, was assessed by flow cytometry. Cells treated with the vehicle, 1% dimethylsulfoxide, DMSO, only served as a negative control.
Apoptosis assay. The FlowCellect Annexin Red Kit (EMD Millipore, Billerica, Mass., USA) was used to determine the apoptosis rate in A549 cells according to the manufacturer's instructions. Briefly, A549 cells were plated in 96-well plates. After a 24 h treatment with cis- or trans-suffruticosol D at concentrations of 100, 32, and 10 μM, the floating and attached cells were collected for analysis. The cells were centrifuged at 700×g for 7 min and were resuspended in 100 μL Assay Buffer (EMD Millipore, Billerica, Mass., USA). Afterwards, the cells were stained with annexin-V for 15 min and 7-amino-actinomycin D (7-AAD) for 5 min, and examined with a Guava EasyCyte Flow Cytometer (EMD Millipore, Billerica, Mass., USA). Data was analyzed using Guava InCyte software.

| Compound | increase of ROS levels (A549 cells [1]; 10 μM) [%] | increase of ROS levels (A549 cells [1]; 32 μM) [%] | increase of ROS levels (A549 cells [1]; 100 μM) [%] | BH3 interacting-domain death agonist (BID) expression [5] | cyclin-dependent kinase inhibitor 1B (p27Kip1) expression [5] | death receptor 6 (DR6) expression [5] | A549 cells induced into apoptosis (A549 cells [7]; 10 μM) [%] | A549 cells induced into apoptosis (A549 cells [7]; 32 μM) [%] | A549 cells induced into apoptosis (A549 cells [7]; 100 μM) [%] | other results |
| --- | --- | --- | --- | --- | --- | --- | --- | --- | --- | --- |
| Oc1ccc(C=Cc2c3c(cc4c2[C@@H](c2cc(O)cc(O)c2)[C@H](c2ccc(O)cc2)O4)O[C@H](c2ccc(O)cc2)[C@@H]3c2cc(O)cc(O)c2)cc1 [cis-suffruticosol D] | 32.8 | 55.6 | 73.1 | up-regulated | up-regulated | up-regulated | 22.2 | 27.1 | 45.3 | IC50 ([2]; listed as cis-SD): 13.4 ± 2.5 µM; Selectivity ([2]; listed as cis-SD): 20; IC50 ([3]; listed as cis-SD): 17.1 ± 1 µM; Selectivity ([3]; listed as cis-SD): 15.8; IC50 ([4]; listed as cis-SD): 46.8 ± 3.3 µM; Selectivity ([4]; listed as cis-SD): 5.8; Selectivity ([6]; listed as cis-SD): 11; IC50 ([6]; listed as cis-SD): 24.6 ± 4.4 µM |
| Oc1ccc(/C=C/c2c3c(cc4c2[C@@H](c2cc(O)cc(O)c2)[C@H](c2ccc(O)cc2)O4)O[C@H](c2ccc(O)cc2)[C@@H]3c2cc(O)cc(O)c2)cc1 [trans-suffruticosol D] | 32.8 | 34.6 | 87.2 | up-regulated | up-regulated | up-regulated | 30.1 | 39.8 | 41.9 | Selectivity ([2]; listed as trans-SD): 14.8; IC50 ([2]; Homo sapiens, BT-20, 48 h): 9.9 ± 3.8 µM; Selectivity ([3]; listed as trans-SD): 12.3; IC50 ([3]; Homo sapiens): 11.9 ± 1.2 µM; IC50 ([4]; listed as trans-SD): 15.8 ± 1.6 µM; Selectivity ([4]; listed as trans-SD): 9.3; Selectivity ([6]; listed as trans-SD): 12.9; IC50 ([6]; listed as trans-SD): 11.3 ± 2.3 µM |

— patent US20180221329A1, “CIS- AND TRANS-SUFFRUTICOSOL D AS THERAPEUTIC AGENTS” (MIDDLE TENNESSEE STATE UNIVERSITY, priority 2015, published 2018)
